Tests used:
Format in all cases: cell-based
mPTP-inactive Daoy cell = assay: CellTiter-Glo cell viability inhibition, mPTP-inactive Daoy cell; conditions: Homo sapiens, Daoy cell transfected with PPIF shRNA vector
ov-NNMT NCI-H82 cell = assay: CellTiter-Glo cell viability inhibition, ov-NNMT NCI-H82 cell; conditions: Homo sapiens, NCI-H82 cell overexpressing NNMT protein
Source text: (§1) The expression of NNMT protein in NCI-H82 cell was overexpressed by inserting the NNMT gene into NCI-H82 cell using a viral vector, and the NNMT protein-overexpressing NCI-H82 cell (ov-NNMT NCI-H82 cell) was obtained. The control NCI-H82 cell (Con-NCI-H82 cell) was obtained by transfecting NCI-H82 cell with empty virus vector without carrying NNMT gene. The expressing content of NNMT protein in the Con-NCI-H82 cell and ov-NNMT NCI-H82 cell was detected using Western Blot assay (as shown in FIG. 3), it could be seen from FIG. 3 that the NNMT protein was overexpressed in the ov-NNMT NCI-H82 cell compared with the expression level of NNMT protein in the Con-NCI-H82 cell.

mPTP-active Daoy cell = assay: CellTiter-Glo cell viability inhibition, mPTP-active Daoy cell; conditions: Homo sapiens; Daoy cell transfected with empty virus vector; CellTiter-Glo; read-out: mPTP-active Daoy cell (IC50)
Con-NCI-H82 cell = assay: CellTiter-Glo cell viability inhibition, Con-NCI-H82 cell; conditions: Homo sapiens, NCI-H82 cell transfected with empty virus vector
Source text: as §1

| SMILES | IC50 (mPTP-inactive Daoy cell) [nM] | IC50 (ov-NNMT NCI-H82 cell) [µM] | IC50 (mPTP-active Daoy cell) [nM] | IC50 (Con-NCI-H82 cell) [µM] |
| --- | --- | --- | --- | --- |
| c1ccc([P+](c2ccccc2)(c2ccc3[nH]ncc3c2)c2cccc3[nH]ccc23)cc1 [AB35580] | 1160 | 3.66 | 4570 | 0.55 |
| c1ccc([P+](c2ccccc2)(c2ccc3cn[nH]c3c2)c2cccc3[nH]ccc23)cc1 [AB35581] | 1740 | 4.81 | 5340 | 1.26 |
| c1ccc([P+](c2ccccc2)(c2ccc3[nH]ccc3n2)c2cccc3[nH]ccc23)cc1 [AB35584] | 460 | 1.73 | 1340 | 0.24 |
| c1ccc([P+](c2ccccc2)(c2ccccc2)c2cccc3c2ccn3CCN2CCOCC2)cc1 [AB35585] | 1220 | 3.34 | 3540 | 0.52 |
| c1ccc([P+](c2ccccc2)(c2cc3cc[nH]c3cn2)c2cccc3[nH]ccc23)cc1 [AB35588] | 380 | 1.78 | 1140 | 0.21 |
| c1ccc([P+](c2ccccc2)(c2ccc3cc[nH]c3n2)c2cccc3[nH]ccc23)cc1 [AB35589] | 360 | 2.34 | 1530 | 0.32 |
| COc1ccc([P+](c2ccc(OC)cc2)(c2cccc3[nH]ccc23)c2cccc3[nH]ccc23)cc1 [AB35596] | 250 | 1.56 | 1320 | 0.25 |
| c1ccc([P+](c2ccccc2)(c2ccc3[nH]ccc3c2)c2ccc3[nH]ccc3n2)cc1 [AB35597] | 240 | 1.85 | 1180 | 0.18 |
| c1ccc([P+](c2ccccc2)(c2ccc3[nH]ccc3c2)c2cc3[nH]ccc3cn2)cc1 [AB36405] | 1890 | 3.72 | 5450 | 0.98 |
| COc1ccc([P+](c2ccc(OC)cc2)(c2cccc3c2ccn3C)c2ccnc3c2ccn3C)cc1 [AB36407] | 240 | 1.55 | 1130 | 0.24 |
| COc1ccc([P+](c2ccc(OC)cc2)(c2ccc(OC)cc2)c2cccc3c2ccn3C)cc1 [AB36411] | 680 | 0.16 | 520 | 0.17 |
| COc1ccc([P+](c2ccc(OC)cc2)(c2cccc3c2ccn3C)c2cccc3c2ccn3C)cc1 [AB36420] | 190 | 0.98 | 1090 | 0.14 |
| COc1ccc([P+](c2ccc(OC)cc2)(c2cccc3c2ccn3C)c2cccc3c2cnn3C)cc1 [AB36438] | 240 | 1.53 | 1030 | 0.32 |
| COc1ccc([P+](c2ccc(OC)cc2)(c2cccc3c2cnn3C)c2cccc3c2cnn3C)cc1 [AB36439] | 1290 | 7.83 | 4360 | 3.07 |
| COc1ccc([P+](c2ccc(OC)cc2)(c2cccc3nn(C)cc23)c2cccc3c2ccn3C)cc1 [AB36444] | 550 | 3.91 | 1990 | 0.86 |
| COc1ccc([P+](c2ccc(OC)cc2)(c2cccc3nn(C)cc23)c2cccc3c2cnn3C)cc1 [AB36445] | 3020 | 18.3 | 13900 | 6.92 |
| COc1ccc([P+](c2ccc(OC)cc2)(c2ccnc3c2ccn3C)c2ccnc3c2ccn3C)cc1 [AB36448] | 2000 | 11.3 | 7240 | 4.23 |
| COc1ccc([P+](c2ccc(OC)cc2)(c2ccnc3c2ccn3C)c2cccc3c2cnn3C)cc1 [AB36449] | 570 | 5.91 | 2160 | 1.49 |
| COc1ccc([P+](c2ccc(OC)cc2)(c2cc3cc[nH]c3cn2)c2cccc3[nH]ccc23)cc1 [AB36453] | 290 | 1.62 | 1850 | 0.35 |

| SMILES | IC50 (mPTP-inactive Daoy cell) [nM] | IC50 (ov-NNMT NCI-H82 cell) [µM] | IC50 (mPTP-active Daoy cell) [nM] | IC50 (Con-NCI-H82 cell) [µM] |
| --- | --- | --- | --- | --- |
| COc1ccc([P+](c2ccc(OC)cc2)(c2ccc3[nH]ccc3n2)c2cccc3c2ccn3CCN2CCOCC2)cc1 [AB36459] | 320 | 2.09 | 1560 | 0.48 |
| COc1ccc([P+](c2ccc(OC)cc2)(c2cccc3nn(C)cc23)c2cccc3nn(C)cc23)cc1 [AB36471] | 1480 | 11 | 6360 | 2.86 |
| COc1ccc([P+](c2ccc(OC)cc2)(c2cccc3[nH]ccc23)c2cccc3[nH]ncc23)cc1 [AB36498] | 1320 | 3.43 | 6650 | 1.01 |
| c1ccc([P+](c2ccccc2)(c2ccccc2)c2cccc3[nH]cnc23)cc1 [AB36504] | 5120 | 10.7 | 25300 | 3.38 |
| c1ccc([P+](c2ccccc2)(c2ccccc2)c2cccc3cn[nH]c23)cc1 [AB36511] | 4030 | 9.74 | 13400 | 3.32 |
| COc1ccc([P+](c2ccccc2)(c2ccccc2)c2cccc3[nH]ccc23)cc1 [AB36513] | 380 | 0.86 | 1960 | 0.11 |
| c1ccc([P+](c2ccccc2)(c2cccc3[nH]ccc23)c2cccc3cn[nH]c23)cc1 [AB36514] | 1190 | 1.35 | 10200 | 0.26 |
| COc1ccc([P+](c2ccc(OC)cc2)(c2cccc3[nH]ncc23)c2cccc3[nH]ncc23)cc1 [AB36516] | 9580 | 17.9 | 33100 | 6.47 |
| c1ccc([P+](c2ccccc2)(c2ccccc2)c2cccc3occc23)cc1 [AB36521] | 750 | 1.92 | 2450 | 0.47 |
| c1ccc([P+](c2ccccc2)(c2ccccc2)c2ccoc2)cc1 [AB36533] | 3520 | 8.97 | 11900 | 3.09 |
| c1ccc([P+](c2ccccc2)(c2ccccc2)c2cccc3scnc23)cc1 [AB36534] | 1210 | 5.11 | 3660 | 1.35 |
| c1ccc([P+](c2ccccc2)(c2ccccc2)c2cccc3sccc23)cc1 [AB36535] | 370 | 2.32 | 1560 | 0.46 |
| c1ccc([P+](c2ccccc2)(c2ccccc2)c2cccc3ccoc23)cc1 [AB36536] | 310 | 1.89 | 1390 | 0.56 |
| c1ccc([P+](c2ccccc2)(c2ccccc2)c2cscn2)cc1 [AB36537] | 3550 | 8.16 | 14400 | 3.97 |
| Brc1c(C[P+](c2ccccc2)(c2ccccc2)c2ccccc2)[nH]c2ccccc12 [AB36542] | 3680 | 9.22 | 8370 | 3.25 |
| C1=C([P+](c2ccccc2)(c2ccccc2)c2ccccc2)CCOC1 [AB36546] | 7280 | 10.5 | 35000 | 4.72 |
| C(=C\C[P+](c1ccccc1)(c1ccccc1)c1ccccc1)/C[P+](c1ccccc1)(c1ccccc1)c1ccccc1 [SJ00001] | 3440 | 0.79 | 3710 | 0.68 |
| c1ccc(P(=[N+]=P(c2ccccc2)(c2ccccc2)c2ccccc2)(c2ccccc2)c2ccccc2)cc1 [SJ00002] | 460 | 0.21 | 440 | 0.18 |

— patent US20250304608A1, “PHOSPHORUS COMPOUND AND USE THEREOF” (SHANGHAI SHIJIANG BIOTECHNOLOGY CO., LTD., priority 2022, published 2025)
